# Results taken from patent US20050209278A1, “Piperidinyl- and piperazinyl-sulfonylmethyl hydroxamic acids and their use as protease inhibitors” (priority 2002, published 2005).
# pKi: −log10 of the molar value.
# Biological target: T1, MMP-9 (Homo sapiens, UniProt P14780)
# T1 construct: made in house; host or cells: MMP-9-transfected HT1080 cells (spent media)
# Assay: In vitro MMP inhibition, Ki determination (fluorogenic substrate II)
# Assay type: biochemical
# Settings: value outside parentheses
# Summary of the method: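 HT1080-derived MMP-9, activated with APMA, trypsin or MMP-3, incubated 1 hr at room temperature with inhibitor and 4 μM fluorogenic substrate II (at or below Km) in pH 7.5 Tris/NaCl/CaCl2 buffer; ex 330/em 420 nm. Ki from Morrison-equation regression, without substrate correction.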
# T1 sequence (P14780 107-707 limits assumed): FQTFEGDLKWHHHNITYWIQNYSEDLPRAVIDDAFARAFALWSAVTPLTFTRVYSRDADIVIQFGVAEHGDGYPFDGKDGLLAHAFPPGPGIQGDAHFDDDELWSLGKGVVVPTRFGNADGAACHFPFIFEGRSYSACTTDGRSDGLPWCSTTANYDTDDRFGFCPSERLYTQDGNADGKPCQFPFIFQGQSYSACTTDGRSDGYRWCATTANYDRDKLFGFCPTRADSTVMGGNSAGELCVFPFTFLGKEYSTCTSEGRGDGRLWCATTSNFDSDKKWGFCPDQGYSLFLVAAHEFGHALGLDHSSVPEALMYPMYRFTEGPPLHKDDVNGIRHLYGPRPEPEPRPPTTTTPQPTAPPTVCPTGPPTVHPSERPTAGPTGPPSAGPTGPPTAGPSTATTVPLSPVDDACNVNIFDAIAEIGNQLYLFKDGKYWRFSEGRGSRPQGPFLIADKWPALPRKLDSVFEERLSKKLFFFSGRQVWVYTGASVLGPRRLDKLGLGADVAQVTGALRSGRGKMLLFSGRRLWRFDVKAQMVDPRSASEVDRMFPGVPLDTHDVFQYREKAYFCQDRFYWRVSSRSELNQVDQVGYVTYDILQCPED
row,Structure (SMILES),pKi
1,COCCN1CCC(C(=O)NO)(S(=O)(=O)N2CCC(c3ccc(CCC(F)(F)F)cc3)CC2)CC1 [Example 309],9.99
2,COCCN1CCC(C(=O)NO)(S(=O)(=O)N2CCC(c3ccc(CCCC(F)(F)F)cc3)CC2)CC1 [Example 310],9.46
3,COCCN1CCC(C(=O)NO)(S(=O)(=O)N2CCC(c3ncc(CC(C)C)s3)CC2)CC1 [Example 311],7.45
4,COCCN1CCC(C(=O)NO)(S(=O)(=O)N2CCC(c3ccc(CCC(F)(F)C(F)(F)F)cc3)CC2)CC1 [Example 312],9.62
